Literature values, collected in patent US20080262249A1, “Psorospermin and Analogues” (priority 2004, published 2008).

Assays:
[1] = target: T1, topoisomerase II-DNA complex (Drosophila melanogaster, UniProt P15348)
T1 sequence (P15348 1-1447): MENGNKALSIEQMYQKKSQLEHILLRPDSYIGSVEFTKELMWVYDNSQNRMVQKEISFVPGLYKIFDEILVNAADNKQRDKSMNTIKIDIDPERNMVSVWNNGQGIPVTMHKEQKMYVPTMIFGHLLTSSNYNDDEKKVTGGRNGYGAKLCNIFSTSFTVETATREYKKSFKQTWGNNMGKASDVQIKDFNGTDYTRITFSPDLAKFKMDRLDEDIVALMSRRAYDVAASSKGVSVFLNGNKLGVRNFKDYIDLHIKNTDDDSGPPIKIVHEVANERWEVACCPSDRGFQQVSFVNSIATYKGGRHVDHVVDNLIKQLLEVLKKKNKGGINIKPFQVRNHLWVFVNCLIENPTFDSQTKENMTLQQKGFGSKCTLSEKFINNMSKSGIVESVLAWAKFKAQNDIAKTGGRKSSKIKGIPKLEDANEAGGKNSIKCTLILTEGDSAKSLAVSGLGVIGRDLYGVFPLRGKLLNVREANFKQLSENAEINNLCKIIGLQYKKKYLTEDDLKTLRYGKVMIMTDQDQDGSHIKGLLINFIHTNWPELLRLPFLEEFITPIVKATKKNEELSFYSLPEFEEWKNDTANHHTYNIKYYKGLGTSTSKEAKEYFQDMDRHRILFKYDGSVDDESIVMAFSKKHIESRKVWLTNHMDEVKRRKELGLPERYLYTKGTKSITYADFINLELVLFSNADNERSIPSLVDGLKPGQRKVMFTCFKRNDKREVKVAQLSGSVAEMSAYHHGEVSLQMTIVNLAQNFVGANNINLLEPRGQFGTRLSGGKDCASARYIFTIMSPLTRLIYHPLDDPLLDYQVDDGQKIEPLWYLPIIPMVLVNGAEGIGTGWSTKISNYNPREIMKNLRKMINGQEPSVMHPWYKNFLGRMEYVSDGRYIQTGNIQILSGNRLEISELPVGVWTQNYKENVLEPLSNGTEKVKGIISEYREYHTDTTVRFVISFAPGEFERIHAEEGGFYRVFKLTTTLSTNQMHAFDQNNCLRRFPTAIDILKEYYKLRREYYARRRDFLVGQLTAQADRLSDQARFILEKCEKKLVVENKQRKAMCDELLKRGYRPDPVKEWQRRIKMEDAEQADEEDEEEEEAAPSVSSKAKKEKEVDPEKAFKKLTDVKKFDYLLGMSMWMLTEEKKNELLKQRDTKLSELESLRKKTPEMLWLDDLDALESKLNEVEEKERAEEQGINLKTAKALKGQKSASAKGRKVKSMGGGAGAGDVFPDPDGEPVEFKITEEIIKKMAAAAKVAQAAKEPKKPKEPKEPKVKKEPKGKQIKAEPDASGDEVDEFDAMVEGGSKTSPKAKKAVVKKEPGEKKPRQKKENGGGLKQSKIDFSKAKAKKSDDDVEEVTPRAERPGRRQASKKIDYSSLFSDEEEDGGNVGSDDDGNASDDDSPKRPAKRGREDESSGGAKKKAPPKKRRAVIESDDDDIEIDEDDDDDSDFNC

[2] = target: T1, topoisomerase II-DNA complex; remark: listed apart in the source

| Structure (SMILES) | effect of increasing topoisomerase II concentration on DNA alkylation ([1]; increasing topoisomerase II concentration) | enhancement of psorospermin alkylation at site A by topoisomerase II ([1]; site A) [fold] | enhancement of psorospermin alkylation at site B by topoisomerase II ([1]; site B, guanine at +4′ position) [fold] | reversibility of stimulated topoisomerase II-induced DNA cleavage ([2]; addition of excess salt) | psorospermin-induced DNA cleavage by topoisomerase II, maximum ([2]; site B, 10 μM drug concentration) [fold] |
| --- | --- | --- | --- | --- | --- |
| C/C=C\C1OC1(C)c1cc(=O)c2c(C)cc3c(c2o1)C(=O)c1c(O)c([C@H]2C[C@](C)(N(C)C)[C@@H](OC(C)=O)[C@@H](C)O2)cc([C@@H]2C[C@H](N(C)C)[C@@H](O)[C@@H](C)O2)c1C3=O (some centres unmarked) [pluramycin, reference compound] | inhibited | – | – | – | – |
| COc1cc2c(c3oc4c(O)cccc4c(=O)c13)C[C@H]([C@@]1(C)CO1)O2 [psorospermin] | – | 3 | 25 | slowly reversed | 3 |
